BigSolDB 2.1

N#CN=C(N)N
solubility (mole fraction)
Conditions | 283.15 K | 288.15 K | 293.15 K | 298.15 K | 303.15 K | 308.15 K | 313.15 K | 318.15 K | 323.15 K
in DMF | 0.239 | 0.248 | 0.258 | 0.259 | 0.262 | 0.265 | 0.274 | 0.276 | 0.284
in water | 0.00474 | 0.00594 | 0.00693 | 0.00897 | 0.0106 | 0.0134 | 0.0173 | 0.021 | 0.0244
